In patent US20240415918A1, “Polypeptide and its use as a CCK receptor agonist/antagonist” (Centre for Regenerative Medicine & Health, Hong Kong …, priority 2021, published 2024):
Entries after “also recorded” stand apart in the source; their conditions may differ.

Key:
[1] = system: tri-transgenic Alzheimer's mice (3×Tg-AD); experiment: Morris water maze, Alzheimer's mice; type: in vivo; conditions: intraperitoneal injection
From the text: Adult male tri-transgenic Alzheimer's mice (3×Tg-AD) were housed under standard conditions with free access to food and water. Our Morris water maze experiment for testing Alzheimer's mice mainly included two parts: positioning navigation experiment and space exploration experiment. The positioning navigation experiment lasted for 8-10 days, and the mice were put into the water four times a day from four entry points facing the pool wall, and the time they spent in finding the hidden platform under the water surface (evasion latency) was recorded. The space exploration experiment was to remove the platform after the positioning navigation experiment, and then put the mice into the pool, record their swimming tracks within one minute, investigate the memory of the mice on the original platform, and calculate the proportion of exploration duration of the mice in the quadrant where the original platform was located (target quadrant). Alzheimer's mice were confirmed to have memory deficiency in the Morris water maze experiment, showing not only a longer evasion latency for positioning the hidden platform in the positioning navigation experiment, but also a worse memory backtracking ability in the space exploration experiment. We randomized Alzheimer's mice into four groups, with the first group given intraperitoneal injection of the CCK4 solution, the second group given intraperitoneal injection of the solvent of CCK4 solution as a control, the third group given intraperitoneal injection of the compound HT-267 solution, and the fourth group given intraperitoneal injection of the solvent of HT-267 solution as a control.

memory-deficient mice [2] = experiment: Morris water maze, memory-deficient mice; type: in vivo; conditions: intraperitoneal injection, CCK4 four times a day 10 days, HT compounds once a day 8 days
From the text: Adult memory-deficient mice were housed under standard conditions with free access to food and water. Our Morris water maze experiment for testing memory-deficient mice mainly included two parts: positioning navigation experiment and space exploration experiment. The experimental methods were the same as Example 5. We randomized memory-deficient mice into six groups, with the first group given intraperitoneal injection of the CCK4 solution, the second group given intraperitoneal injection of the solvent of CCK4 solution as a control, the third group given intraperitoneal injection of the compound HT-267 solution, the fourth group given intraperitoneal injection of the compound HT-177 solution, the fifth group given intraperitoneal injection of the compound HT-178 solution, and the sixth group given intraperitoneal injection of the solvent of compound solution as a control. In the positioning navigation experiment, the treatment and training methods of the first and the second groups were the same as those of the first and second groups in Example 5, that is, four times of treatment a day, four times of training a day, for a total of 10 days of training. The treatment and training methods of the third to sixth groups were the same as the third and fourth groups in Example 5, that is, one treatment a day, four times of training a day, for a total of 8 days of training. In the space exploration experiment, the spatial memory ability of mice was tested in the same way for each group.

[3] = system: tri-transgenic Alzheimer's mice (3×Tg-AD); experiment: New object recognition experiment, Alzheimer's mice; type: in vivo; conditions: intraperitoneal injection
From the text: (§1) The new object recognition experiment is a highly validated method of cognitive memory, designed by Ennaceur & Delacour (1988) based on the exploration characteristics of rodents to new environments, and this model evaluates the memory function of the tested animal based on the length of time that the animal spends in exploring familiar objects it has seen in the environment and new objects it has not seen. […] The experiment is usually divided into three stages: 1. Adaptation period: let the animal be familiar with the experimental environment, and no objects are placed in the experimental box; 2. Familiarization period: place two identical objects in the experimental box and let the mice explore freely for 10 minutes; 3. Test period: put a new object in the experimental box to replace one of the old objects, and the positions of the objects remain unchanged. The exploration of mice was recorded with video, and the time spent in exploring the old and new objects by mice was analyzed, and the proportion of time spent in exploring the new object by mice in the test period accounting for the total time for exploring the objects was calculated, that is, the recognition index of new objects.
Adult male tri-transgenic Alzheimer's mice (3×Tg-AD) were housed under standard conditions with free access to food and water. […]

memory-deficient mice [4] = experiment: New object recognition experiment, memory-deficient mice; type: in vivo; conditions: intraperitoneal injection
From the text: as §1
Adult memory-deficient mice were housed under standard conditions with free access to food and water. Our new object recognition experiment for testing memory-deficient mice mainly included the adaptation period, the familiarization period, and the test period. The experimental method was the same as Example 12.
We randomized memory-deficient mice into four groups, with one group given intraperitoneal injection of the solvent of drug as the control group, administration group 1 given intraperitoneal injection of the compound HT-267 solution, administration group 2 given intraperitoneal injection of the compound HT-177 solution, and administration group 3 given intraperitoneal injection of the compound HT-178 solution. After the adaptation and familiarization period training, we tested the recognition memory of several groups of mice in the test period experiment.

[5] = system: neocortex of Alzheimer's mice; experiment: Long-term potentiation, in vitro field potential recording of brain slices (MED64), Alzheimer's mice; type: cell-based; conditions: compound injected for five minutes
From the text: An in vitro electrophysiological electrical signal recording method was used to investigate whether compound HT-267 can induce long-term potentiation in the neocortex of Alzheimer's mice. The MED64 low-noise multi-electrode recording system was used to record the electrical signals of brain slices cultured in vitro. […] It was shown that compound HT-267 could induce long-term potentiation in the neocortex of Alzheimer's mice.

[6] = system: neocortex of memory-deficient mice; experiment: Long-term potentiation, in vitro field potential recording of brain slices (MED64), memory-deficient mice; type: cell-based; conditions: compound injected for five minutes
From the text: An in vitro electrophysiological electrical signal recording method was used to investigate whether compound HT-267, compound HT-177, and compound HT-178 can induce long-term potentiation in the neocortex of memory-deficient mice. The MED64 low-noise multi-electrode recording system was used to record the electrical signals of brain slices cultured in vitro.

[7] = Pharmacokinetics in KM mice after intravenous administration; conditions: male, mouse, plasma, 1 mg/kg

AUC(0-inf) [7]: 302 ng·h/mL
Cmax [7]: 1930 ng/mL
Tmax [7]: 1.98 min
half-life ([7]; T1/2, KM mice male, I.V. 1 mg/kg): 96.1 min
Structure (SMILES): CSCC[C@H](NC(=O)[C@@H](Cc1c[nH]c2ccccc12)NC(C)=O)C(=O)N[C@@H](CC(=O)O)C(=O)N[C@@H](Cc1cccc(Br)c1)C(N)=O [HT-267, Ac-D-Trp-Met-Asp-Phe(3-Br)-NH2]
proportion of exploration duration in the target quadrant vs control [1]: significantly higher than the control group; also recorded: slightly better than the CCK4 administration group
spatial exploration tracks in space exploration experiment [1]: more spatial exploration tracks at the original position of the platform
evasion latency in positioning navigation experiment vs control ([1]; CCK4 four times a day 10 days, HT-267 once a day 8 days): shorter than that of the control group
proportion of exploration duration in the target quadrant vs control (memory-deficient mice [2]): significantly higher than that in the control group; also recorded: best effect
recognition index of new objects vs control [3]: significantly higher than that of the control group
recognition index of new objects vs control (memory-deficient mice [4]): significantly higher than that of the control group
basal field potential after administration (long-term potentiation) [5]: enhanced, and the enhancement lasted for more than one hour
basal field potential after administration (long-term potentiation) [6]: enhanced, and the enhancement lasted for more than one hour
